The term pIC50 denotes the negative decadic logarithm of the IC50, by convention in mol/L.

pIC50: −log10 of the molar value. Bounds are passed on as bounds.

In the test the target is T1, GR (Homo sapiens, UniProt P04150).
T1 construct: expressed in transfected cells; host or cells: CHO-K1
T1 sequence (P04150 1-777): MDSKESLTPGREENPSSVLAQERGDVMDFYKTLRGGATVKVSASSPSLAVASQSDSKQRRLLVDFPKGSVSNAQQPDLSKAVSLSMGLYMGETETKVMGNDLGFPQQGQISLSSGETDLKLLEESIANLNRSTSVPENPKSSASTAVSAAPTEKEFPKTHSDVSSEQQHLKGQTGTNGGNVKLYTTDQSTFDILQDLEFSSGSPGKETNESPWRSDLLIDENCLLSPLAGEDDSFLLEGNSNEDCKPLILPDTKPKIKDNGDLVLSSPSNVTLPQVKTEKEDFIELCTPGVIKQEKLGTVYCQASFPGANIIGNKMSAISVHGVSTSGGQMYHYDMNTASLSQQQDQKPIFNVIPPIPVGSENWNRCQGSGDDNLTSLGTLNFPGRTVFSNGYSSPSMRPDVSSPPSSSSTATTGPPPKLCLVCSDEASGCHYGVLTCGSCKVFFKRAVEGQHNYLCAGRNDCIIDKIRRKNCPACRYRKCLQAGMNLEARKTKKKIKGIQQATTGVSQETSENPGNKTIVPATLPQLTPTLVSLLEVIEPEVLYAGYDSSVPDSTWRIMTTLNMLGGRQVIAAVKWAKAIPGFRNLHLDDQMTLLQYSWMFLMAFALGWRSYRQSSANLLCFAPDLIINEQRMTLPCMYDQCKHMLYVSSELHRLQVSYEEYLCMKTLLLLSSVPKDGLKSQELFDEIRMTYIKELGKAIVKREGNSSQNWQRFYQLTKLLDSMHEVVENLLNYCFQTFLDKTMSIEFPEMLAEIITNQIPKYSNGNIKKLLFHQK
The test can be described thus: In Vitro GR Luciferase Reporter Assay (antagonist mode, CHO-K1-GR-MMTV-Luc reporter cells). Type of test: cell-based. To be noted: antagonist mode, 10 nM Dexamethasone. The essentials:
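CHO-K1-GR-MMTV-Luc cells in phenol red-free DMEM with 10% CSS, stimulated with 10 nM dexamethasone (final) and treated with 8-point 1:5 compound dilutions for about 18-24 h at 37° C. Luciferase measured by OneGlo luminescence; IC50 derived for inhibition of GR activity.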
On the technique in general: A reporter such as luciferase makes a cellular process visible.

`CN([C@H]1CCC2=Cc3c(cnn3-c3ccc(F)cc3)C[C@]2(C(=O)c2ncc(C3CC3)s2)C1)S(=O)(=O)c1cnn(C)n1` [Example 148, N-((4aS,6S)-4a-(5-cyclopropylthiazole-2-carbonyl)-1-(4-fluorophenyl)-4,4a,5,6,7,8-hexahydro-1H-benzo[f]indazol-6-yl)-N,2-dimethyl-2H-1,2,3-triazole-4-sulfonamide] gave a pIC50 not below 7.00.

As for `CN([C@H]1CCC2=Cc3c(cnn3-c3ccc(F)cc3)C[C@]2(C(=O)c2cc(C3CC3)ccn2)C1)S(=O)(=O)c1cnn(C)n1` [Example 149, N-((4aS,6S)-4a-(4-cyclopropylpicolinoyl)-1-(4-fluorophenyl)-4,4a,5,6,7,8-hexahydro-1H-benzo[f]indazol-6-yl)-N,2-dimethyl-2H-1,2,3-triazole-4-sulfonamide], the pIC50 is not below 7.00.

With `CN([C@H]1CCC2=Cc3c(cnn3-c3ccc(F)cc3)C[C@]2(C(=O)c2nc(C3CC3)cs2)C1)S(=O)(=O)c1cnn(C)n1` [Example 150, N-((4aS,6S)-4a-(4-cyclopropylthiazole-2-carbonyl)-1-(4-fluorophenyl)-4,4a,5,6,7,8-hexahydro-1H-benzo[f]indazol-6-yl)-N,2-dimethyl-2H-1,2,3-triazole-4-sulfonamide], the pIC50 was not below 7.00.

Take `CN([C@H]1CCC2=Cc3c(cnn3-c3ccc(F)cc3)C[C@]2(C(=O)c2ncc(C(F)(F)F)s2)C1)S(=O)(=O)c1cnn(C)n1` [Example 151, N-((4aS,6S)-1-(4-fluorophenyl)-4a-(5-(trifluoromethyl)thiazole-2-carbonyl)-4,4a,5,6,7,8-hexahydro-1H-benzo[f]indazol-6-yl)-N,2-dimethyl-2H-1,2,3-triazole-4-sulfonamide]: the pIC50 is not below 7.00.

Turning to `Cn1ccc(S(=O)(=O)N(C2CC2)[C@H]2CCC3=Cc4c(cnn4-c4ccc(F)cc4)C[C@]3(C(=O)c3ccc(C4CC4)cn3)C2)n1` [Example 152, N-cyclopropyl-N-((4aS,6S)-4a-(5-cyclopropylpicolinoyl)-1-(4-fluorophenyl)-4,4a,5,6,7,8-hexahydro-1H-benzo[f]indazol-6-yl)-1-methyl-1H-pyrazole-3-sulfonamide], the pIC50 was not below 7.00.

Compound `CCN([C@H]1CCC2=Cc3c(cnn3-c3ccc(F)cc3)C[C@]2(C(=O)c2ncc(C3CC3)s2)C1)S(=O)(=O)c1cnn(C)c1` [Example 154, N-((4aS,6S)-4a-(5-cyclopropylthiazole-2-carbonyl)-1-(4-fluorophenyl)-4,4a,5,6,7,8-hexahydro-1H-benzo[f]indazol-6-yl)-N-ethyl-1-methyl-1H-pyrazole-4-sulfonamide] had a pIC50 not below 7.00.

Compound `CCn1ccc(S(=O)(=O)N(C)[C@H]2CCC3=Cc4c(cnn4-c4ccc(F)cc4)C[C@]3(C(=O)c3cc(C(F)(F)F)ccn3)C2)n1` [Example 157, 1-ethyl-N-((4aS,6S)-1-(4-fluorophenyl)-4a-(4-(trifluoromethyl)picolinoyl)-4,4a,5,6,7,8-hexahydro-1H-benzo[f]indazol-6-yl)-N-methyl-1H-pyrazole-3-sulfonamide] had a pIC50 not below 7.00.

On to `CCn1cc(S(=O)(=O)N(C2CC2)[C@H]2CCC3=Cc4c(cnn4-c4ccc(F)cc4)C[C@]3(C(=O)c3cc(C(F)(F)F)ccn3)C2)cn1` [Example 158, N-cyclopropyl-1-ethyl-N-((4aS,6S)-1-(4-fluorophenyl)-4a-(4-(trifluoromethyl)picolinoyl)-4,4a,5,6,7,8-hexahydro-1H-benzo[f]indazol-6-yl)-1H-pyrazole-4-sulfonamide], for which the pIC50 was not below 7.00.

On to `O=C(c1nccs1)[C@]12Cc3cnn(-c4ccc(F)cc4)c3C=C1CC[C@H](N(C1CC1)S(=O)(=O)c1ccc(F)cc1)C2` [Example 159, N-cyclopropyl-4-fluoro-N-((4aS,6S)-1-(4-fluorophenyl)-4a-(thiazole-2-carbonyl)-4,4a,5,6,7,8-hexahydro-1H-benzo[f]indazol-6-yl)benzenesulfonamide], for which the pIC50 is not below 7.00.

For `CN([C@H]1CCC2=Cc3c(cnn3-c3ccc(F)cc3)C[C@]2(C(=O)c2nccs2)C1)S(=O)(=O)c1cnn(C)n1` [Example 161, N-((4aS,6S)-1-(4-fluorophenyl)-4a-(thiazole-2-carbonyl)-4,4a,5,6,7,8-hexahydro-1H-benzo[f]indazol-6-yl)-N,2-dimethyl-2H-1,2,3-triazole-4-sulfonamide], the pIC50 was not below 7.00.

Compound `CN([C@H]1CCC2=Cc3c(cnn3-c3ccc(F)cc3)C[C@]2(C(=O)c2nccs2)C1)S(=O)(=O)c1cnn(C2CC2)n1` [Example 162, 2-cyclopropyl-N-((4aS,6S)-1-(4-fluorophenyl)-4a-(thiazole-2-carbonyl)-4,4a,5,6,7,8-hexahydro-1H-benzo[f]indazol-6-yl)-N-methyl-2H-1,2,3-triazole-4-sulfonamide] gave a pIC50 not below 7.00.

In turn, `CN([C@H]1CCC2=Cc3c(cnn3-c3ccc(F)cc3)C[C@]2(C(=O)c2cc(C(F)(F)F)ccn2)C1)S(=O)(=O)c1cn(C)cn1` [Example 163, N-((4aS,6S)-1-(4-fluorophenyl)-4a-(4-(trifluoromethyl)picolinoyl)-4,4a,5,6,7,8-hexahydro-1H-benzo[f]indazol-6-yl)-N,1-dimethyl-1H-imidazole-4-sulfonamide] had a pIC50 not below 7.00.

Consider `CCN([C@H]1CCC2=Cc3c(cnn3-c3ccc(F)cc3)C[C@]2(C(=O)c2nccs2)C1)S(=O)(=O)c1cnn(C(F)F)c1` [Example 165, 1-(difluoromethyl)-N-ethyl-N-((4aS,6S)-1-(4-fluorophenyl)-4a-(thiazole-2-carbonyl)-4,4a,5,6,7,8-hexahydro-1H-benzo[f]indazol-6-yl)-1H-pyrazole-4-sulfonamide], for which the pIC50 is not below 7.00.

Turning to `CCN([C@H]1CCC2=Cc3c(cnn3-c3ccc(F)cc3)C[C@]2(C(=O)c2nccs2)C1)S(=O)(=O)c1ccn(C)n1` [Example 167, N-ethyl-N-((4aS,6S)-1-(4-fluorophenyl)-4a-(thiazole-2-carbonyl)-4,4a,5,6,7,8-hexahydro-1H-benzo[f]indazol-6-yl)-1-methyl-1H-pyrazole-3-sulfonamide], the pIC50 was not below 7.00.

In turn, `Cn1cc(S(=O)(=O)N(C2CC2)[C@H]2CCC3=Cc4c(cnn4-c4ccc(F)cc4)C[C@]3(C(=O)c3nccs3)C2)cn1` [Example 168, N-cyclopropyl-N-((4aS,6S)-1-(4-fluorophenyl)-4a-(thiazole-2-carbonyl)-4,4a,5,6,7,8-hexahydro-1H-benzo[f]indazol-6-yl)-1-methyl-1H-pyrazole-4-sulfonamide] showed a pIC50 not below 7.00.

As for `CN([C@H]1CCC2=Cc3c(cnn3-c3ccc(F)cc3)C[C@]2(C(=O)c2cc(C(F)(F)F)ccn2)C1)S(=O)(=O)c1cnnn1C` [Example 169, N-((4aS,6S)-1-(4-fluorophenyl)-4a-(4-(trifluoromethyl)picolinoyl)-4,4a,5,6,7,8-hexahydro-1H-benzo[f]indazol-6-yl)-N,1-dimethyl-1H-1,2,3-triazole-5-sulfonamide], the pIC50 was not below 7.00.

Consider `Cn1cc(S(=O)(=O)N(C2CC2)[C@H]2CCC3=Cc4c(cnn4-c4ccc(F)cc4)C[C@]3(C(=O)c3ncc(C4CC4)s3)C2)cn1` [Example 171, N-cyclopropyl-N-((4aS,6S)-4a-(5-cyclopropylthiazole-2-carbonyl)-1-(4-fluorophenyl)-4,4a,5,6,7,8-hexahydro-1H-benzo[f]indazol-6-yl)-1-methyl-1H-pyrazole-4-sulfonamide], for which the pIC50 was not below 7.00.

`Cn1ccc(S(=O)(=O)N(CC2CC2)[C@H]2CCC3=Cc4c(cnn4-c4ccc(F)cc4)C[C@]3(C(=O)c3nccs3)C2)n1` [Example 172, N-(cyclopropylmethyl)-N-((4aS,6S)-1-(4-fluorophenyl)-4a-(thiazole-2-carbonyl)-4,4a,5,6,7,8-hexahydro-1H-benzo[f]indazol-6-yl)-1-methyl-1H-pyrazole-3-sulfonamide]: the pIC50 is not below 7.00.

As for `Cn1ncc(S(=O)(=O)N(C2CC2)[C@H]2CCC3=Cc4c(cnn4-c4ccc(F)cc4)C[C@]3(C(=O)c3nccs3)C2)n1` [Example 173, N-cyclopropyl-N-((4aS,6S)-1-(4-fluorophenyl)-4a-(thiazole-2-carbonyl)-4,4a,5,6,7,8-hexahydro-1H-benzo[f]indazol-6-yl)-2-methyl-2H-1,2,3-triazole-4-sulfonamide], the pIC50 is not below 7.00.

Regarding `Cn1ncc(S(=O)(=O)N(C2CC2)[C@H]2CCC3=Cc4c(cnn4-c4ccc(F)cc4)C[C@]3(C(=O)c3ncc(C4CC4)s3)C2)n1` [Example 174, N-cyclopropyl-N-((4aS,6S)-4a-(5-cyclopropylthiazole-2-carbonyl)-1-(4-fluorophenyl)-4,4a,5,6,7,8-hexahydro-1H-benzo[f]indazol-6-yl)-2-methyl-2H-1,2,3-triazole-4-sulfonamide], the pIC50 is not below 7.00.
